Laboratory results: patent US4925848A, “Derivative of codeine useful as an agonist and process for the preparation of it” (Reckitt & Colman Products Limited, priority 1987, dated 1990)
≈ marks a conversion by molar mass, not a printed value. Entries after “also recorded” stand apart in the source; their conditions may differ.

Tests used:
opioid receptor subtypes = assay: Mouse vas deferens preparation (MVD), agonist/antagonist profile at opioid receptor subtypes; format: cell-based; conditions: for rank order of affinities: antagonists
From the text: (§1) To obtain some insight into the profiles at opioid receptor subtypes compounds of formula III where R=H, Cl, Br and Me were therefore examined in isolated tissue preparations. Comparative data on the previously disclosed dehydro compounds of formula III is also included. The results obtained in the mouse was deferens preparation (MVD)(Henderson et al Brit J Pharmacol., 46,764, 1972) for these compounds are shown in Table 2. Although the unsubstituted compounds (R=H) were full agonists in this test situation no delta-agonist properties could be detected. […] The corresponding methyl and bromo dihydro compounds were antagonists with the rank order of affinities: mu>delta>kappa.
(§2) ke = Molar concentration of antagonist at which twice the concentration o
(§3) the agonist was required to produce the same response as that produced in
(§4) the absence of the antagonist; μ Agonist = Normorphine (NM); kAgonist
(§5) Ethylketocyclazocine; dAgonist = DAla-D-Leu Enkephalin.

mu opioid receptor = target: T1, mu opioid receptor (Mus musculus, UniProt P42866); assay: Mouse vas deferens preparation (MVD), mu receptor (normorphine); format: cell-based; conditions: in vitro MVD; for Kb: antagonist of normorphine, read-out: ke, μ
T1 construct: mu agonist normorphine
From the text: as §1, §2, §3, §4, §5

[1] = system: morphine antagonist activity; conditions: s.c., reported in a response filed during prosecution of the corresponding U.S. application; cited from earlier work
[2] = system: rat tail pressure antinociception; assay: Rat tail pressure (RTP) antinociceptive test; format: in vivo; conditions: for agonist activity in the RPT test: in words
From the text: Compounds of formula III were initially examined in two antinociceptive tests (in vivo) to assess their analgesic potential and are shown in the following Table 1. These tests were:
(2) The rat tail pressure (RTP) which is described by Green and Young, (Br. J. Pharmac Chemother., 6,572, 1951).

delta opioid receptor = target: T2, delta opioid receptor (Mus musculus, UniProt P32300); assay: Mouse vas deferens preparation (MVD), delta receptor (DAla-D-Leu enkephalin); format: cell-based; conditions: for Kb: antagonist of DAla-D-Leu enkephalin, read-out: ke, d
T2 construct: delta agonist DAla-D-Leu enkephalin
From the text: as §1, §2, §3, §4, §5

delta receptor = target: T3, delta receptor (Mus musculus, UniProt P32300); assay: MVD agonist effects of compound I in absence/presence of RX 8008M or naltrexone; format: cell-based
T3 construct: agonism of compound I with delta-selective antagonist RX or mu-selective naltrexone
From the text: ^a Groups (n = 2-6) of MVD used in each treatment schedule.
^b IC40 is the concentration of agonist required to reduce the
maximal contraction to electrical stimulation by 40 percent. The slow
values in the presence or absence of the antagonists in the same

[3] = system: drug reinforcing effects in rhesus monkeys; assay: Self-administration study in codeine-trained rhesus monkeys (drug reinforcing effects); format: in vivo, rhesus monkey; conditions: for response rates maintained compared with codeine: similar conditions, FIGS. 2 and 3
Description: Drug reinforcing effects were evaluated in rhesus monkeys trained to respond for 0.32 mg/kg/iv injection of codeine.

kappa and mu receptors = assay: DMPP stimulated guinea pig ileum (GPI) preparation (kappa and mu test); format: cell-based; conditions: in words
From the text: *In the guinea pig ileum preparation (GPI), as described on page 268 of […]

mu receptor = assay: GPI preparation, mu receptor agonism; format: cell-based, guinea pig; conditions: in words
kappa opioid receptor = assay: Mouse vas deferens preparation (MVD), kappa receptor (ethylketocyclazocine); format: cell-based; conditions: in vitro MVD; antagonist of ethylketocyclazocine; read-out: ke, k
From the text: as §1, §2, §3, §4, §5

kappa receptor = kappa receptor (Cavia porcellus, UniProt P41144); assay: GPI preparation, kappa receptor agonism; format: cell-based, guinea pig; conditions: in words
kappa receptor, sequence (P41144 whole entry): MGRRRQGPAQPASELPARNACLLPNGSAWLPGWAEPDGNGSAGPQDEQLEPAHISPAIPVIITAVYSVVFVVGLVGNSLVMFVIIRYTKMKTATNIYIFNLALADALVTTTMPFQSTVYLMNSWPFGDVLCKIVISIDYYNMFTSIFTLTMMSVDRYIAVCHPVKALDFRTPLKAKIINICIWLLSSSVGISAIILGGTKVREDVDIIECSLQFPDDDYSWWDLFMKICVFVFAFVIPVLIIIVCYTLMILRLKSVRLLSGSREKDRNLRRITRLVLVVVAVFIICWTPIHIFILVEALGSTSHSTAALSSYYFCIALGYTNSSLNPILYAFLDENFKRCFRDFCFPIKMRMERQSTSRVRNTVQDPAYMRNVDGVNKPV

T1 sequence (P42866 whole entry): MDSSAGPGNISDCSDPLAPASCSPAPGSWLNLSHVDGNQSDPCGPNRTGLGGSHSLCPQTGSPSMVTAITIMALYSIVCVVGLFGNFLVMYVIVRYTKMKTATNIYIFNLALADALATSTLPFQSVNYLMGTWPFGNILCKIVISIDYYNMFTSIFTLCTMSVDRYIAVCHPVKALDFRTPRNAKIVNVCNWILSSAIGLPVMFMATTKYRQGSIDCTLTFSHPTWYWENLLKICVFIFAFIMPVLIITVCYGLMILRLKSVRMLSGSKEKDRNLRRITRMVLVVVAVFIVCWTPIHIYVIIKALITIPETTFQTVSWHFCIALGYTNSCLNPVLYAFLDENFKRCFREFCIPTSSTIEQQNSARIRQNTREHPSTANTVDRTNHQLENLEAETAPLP
T2 sequence (P32300 whole entry): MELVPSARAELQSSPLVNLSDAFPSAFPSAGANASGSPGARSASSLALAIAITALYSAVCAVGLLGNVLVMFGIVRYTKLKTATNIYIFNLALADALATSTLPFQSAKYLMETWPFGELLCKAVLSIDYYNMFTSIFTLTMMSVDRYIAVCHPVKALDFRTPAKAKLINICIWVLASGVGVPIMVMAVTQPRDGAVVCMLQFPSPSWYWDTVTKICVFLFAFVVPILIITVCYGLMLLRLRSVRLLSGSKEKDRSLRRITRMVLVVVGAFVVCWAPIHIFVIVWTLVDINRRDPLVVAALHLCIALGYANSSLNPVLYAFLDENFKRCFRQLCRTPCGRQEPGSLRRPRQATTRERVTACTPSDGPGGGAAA
T3 sequence (P32300 whole entry): as above

## COc1ccc2c3c1O[C@H]1C(=O)C=C[C@@]4(NC(=O)C=Cc5ccccc5)[C@@H](C2)N(CC2CC2)CC[C@]314 [Ex. 15]
Opioid receptor subtypes; in vitro MVD, in words
  MVD activity profile: μ and k-Agonist
Mu opioid receptor
  agonist potency relative to normorphine (× NM): 200 × NM

## O=CN[C@@]12CCC(=O)[C@@H]3Oc4c(O)ccc5c4[C@@]31CCN(CC1CC1)[C@@H]2C5 [Example 108]
[1]
  AD50 (RTF test): 0.16 mg/kg
[2]
  agonist activity in the RPT test: neither the dehydro compound (Example 49) nor the dihydro compound (Example 108) exhibited agonist activity

## COc1ccc2c3c1O[C@H]1C(=O)CC[C@@]4(NC(=O)C=Cc5ccc(Cl)cc5)[C@@H](C2)N(CC2CC2)CC[C@]314 [I, 14-β-p-chlorocinnamoylamino-7,8-dihydro-N-cyclopropylmethyl-norcodeinone]
Delta opioid receptor; in vitro MVD, Table 2, read-out: ED40 (d-agonism)
  EC40: 3.1 ng/mL (≈ 5.97 nM)
Delta opioid receptor; in vitro MVD, in words
  delta agonism in MVD: delta-agonist activity; also recorded: d-Agonist
Delta opioid receptor; in words
  intrinsic activity at delta-receptors, in vitro summary: substantial level of intrinsic activity at delta-receptors
Delta receptor
  IC40: 0.098 ng/mL
Delta receptor; MVD, + RX 8008M (10 ng/ml)
  IC40 in presence of RX 8008M: 9.15 + 3.4 ng/ml
Delta receptor; MVD, + naltrexone (100 ng/ml)
  IC40 in presence of naltrexone: 1.44 + 0.01 ng/ml
[3]; 0.0003-0.01 mg/kg, i.v., substituted for codeine, single 130 minute sessions, FIG. 1
  response rates maintained compared with saline: identical to those maintained by saline
Kappa and mu receptors
  GPI dose-response curve / agonist activity: very shallow dose-response curve
Kappa and mu receptors; RX 8008M (25 nM)
  antagonism of GPI response by RX 8008M: atagonised by RX 8008M (25 nM)
Mu receptor; DMPP stimulated GPI
  mu agonist activity in GPI: low intrinsic activity mu agonist
Mu receptor
  intrinsic activity at mu receptors, in vitro summary: low intrinsic acitivity at mu receptors

## COc1ccc(C=CC(=O)N[C@@]23CCC(=O)[C@@H]4Oc5c(OC)ccc6c5[C@@]42CCN(CC2CC2)[C@@H]3C6)cc1 [OMe dihydro]
[2]; at 1 mg/kg, Table 1
  RTP, percent effect: 40%

## COc1ccc2c3c1O[C@H]1C(=O)C=C[C@@]4(NC(=O)C=Cc5ccc(C)cc5)[C@@H](C2)N(CC2CC2)CC[C@]314 [Ex. 92]
Opioid receptor subtypes; in vitro MVD, in words
  MVD activity profile: Partial μ Agonist

## O=CN[C@@]12C=CC(=O)[C@@H]3Oc4c(O)ccc5c4[C@@]31CCN(CC1CC1)[C@@H]2C5 [Example 49]
[1]
  AD50 (RTF test): 0.132 mg/kg
[2]
  agonist activity in the RPT test: neither the dehydro compound (Example 49) nor the dihydro compound (Example 108) exhibited agonist activity

## COc1ccc2c3c1O[C@H]1C(=O)CC[C@@]4(NC(=O)C=Cc5ccc(Br)cc5)[C@@H](C2)N(CC2CC2)CC[C@]314 [Br dihydro]
Opioid receptor subtypes; in vitro MVD
  rank order of affinities: mu>delta>kappa
Opioid receptor subtypes; in vitro MVD, in words
  MVD activity profile: antagonists
Opioid receptor subtypes; in words
  agonist activity in MVD: negligible agonist activity
Delta opioid receptor; in vitro MVD
  Kb: 0.0086 µM
Mu opioid receptor
  Kb: 0.00032 µM
Kappa opioid receptor
  Kb: 0.0273 µM
[3]
  response rates maintained compared with codeine: appropriately equal to the level of responding maintained by codeine
Kappa and mu receptors
  GPI dose-response curve / agonist activity: negligible agonist activity

## COc1ccc2c3c1O[C@H]1C(=O)CC[C@@]4(NC(=O)C=Cc5ccccc5)[C@@H](C2)N(CC2CC2)CC[C@]314 [H dihydro]
Opioid receptor subtypes; in vitro MVD, in words
  MVD activity profile: μ Agonist
Delta opioid receptor; in vitro MVD, in words
  delta agonism in MVD: No d-agonism detected
Mu opioid receptor
  agonist potency relative to normorphine (× NM): 72,000 × NM

## COc1ccc2c3c1O[C@H]1C(=O)CC[C@@]4(NC(=O)C=Cc5ccc(C)cc5)[C@@H](C2)N(CC2CC2)CC[C@]314 [Me dihydro]
Opioid receptor subtypes; in vitro MVD
  rank order of affinities: mu>delta>kappa
Opioid receptor subtypes; in vitro MVD, in words
  MVD activity profile: antagonists
Delta opioid receptor; in vitro MVD
  Kb: 0.0193 µM
Kappa receptor
  kappa agonist activity in GPI: predominantly kappa partial agonist activity
Mu opioid receptor
  Kb: 0.00028 µM
Kappa opioid receptor
  Kb: 0.0663 µM
[3]
  response rates maintained compared with codeine: appropriately equal to the level of responding maintained by codeine

## COc1ccc2c3c1O[C@H]1C(=O)C=C[C@@]4(NC(=O)C=Cc5ccc(Cl)cc5)[C@@H](C2)N(CC2CC2)CC[C@]314 [Ex. 91]
Opioid receptor subtypes; Mus musculus, in vitro MVD, Table 2, read-out: ED40 (μ + k-agonism)
  EC40: > 300 ng/mL
Opioid receptor subtypes; in vitro MVD, in words
  MVD activity profile: Weak μ + k-Agonist
Delta opioid receptor; in vitro MVD, in words
  delta agonism in MVD: No d-agonism detected
